Measured values: PMC6257622, “Discovery and Structure–Activity-Relationship Study of N-Alkyl-5-hydroxypyrimidinone Carboxamides as Novel Antitubercular Agents Targeting Decaprenylphosphoryl-β-D-ribose 2′-Oxidase” (Journal of Medicinal Chemistry, 2018)
Values after ≈ are worked out from the molar mass of the structure shown. Values joined by “and” are separate entries in the source; they are usually repeats but may differ in a detail not shown here. Equal values may be shown once. Read-outs that look alike come from different tables or passages of the source.

Legend:
iniBAC promoter = format: cell-based, Mycobacterium tuberculosis
[1] = C57Bl/6 mice, oral, 10 mg/kg single dose
HepG2 cells = experiment: in vitro; format: cell-based; settings: HepG2 cells in DMEM/10% FBS with galactose (mitochondrial toxicity); read-out: Cytotoxicity (IC50) Galactose
in vitro = format: cell-based; settings: human; HepG2 cells in DMEM/10% FBS supplemented with glucose; read-out: Cytotoxicity (IC50) Glucose
recA and radA reporters = format: cell-based, Mycobacterium tuberculosis
[2] = system: anaerobic nonreplicating Mtb cells; format: cell-based, Mycobacterium tuberculosis; settings: 7 days exposure, 1–50× aerobic MIC, Wayne model
[3] = system: Mtb in J774 murine macrophages; experiment: Intracellular killing assay in murine macrophage J774; settings: 1–50-fold MIC, 4 or 7 days
Description: For the ex vivo efficacy test, J774 cells (5 × 10^5 cells/well) were seeded in flat-bottom 24-well plates (Corning Inc.) in DMEM GlutaMAX (Gibco/ThermoFisher Scientific) supplemented with 10% fetal-bovine serum, 20 mM HEPES, and 0.5 mM sodium pyruvate (hereafter abbreviated as DMEM/FBS). Cells were infected with Mtb (5 × 10^5 cells/well, MOI 1) for 24 h; this was followed by medium removal and washing (2×) with an equal volume of Dulbecco’s PBS. Infected cells were fed DMEM/FBS and exposed to test compounds at 1×, 10×, 20×, and 50× MIC in medium (500 μL/well). Cells were incubated at 37 °C with 95% humidity and 5% CO2 in an incubator for 7 days. The medium was changed every 4 days. After 4 and 7 days of incubation, 0.1% SDS was added to each well to lyse the J774 cells. After 5 min, the lysate was thoroughly mixed and diluted in 7H9/ADC, and appropriate dilutions were plated in duplicate on 7H11/OADC plates.
Mtb cydC::aph strain = format: cell-based, Mycobacterium tuberculosis
actively replicating Mtb = format: cell-based, Mycobacterium tuberculosis
Mtb strain H37Rv = experiment: MIC determination against Mtb H37Rv in different media; format: cell-based, Mycobacterium tuberculosis

For Cn1c(Cc2ccccc2C(F)(F)F)nc(C(=O)NCc2ccccc2)c(O)c1=O [Compound P01, N-Benzyl-5-hydroxy-1-methyl-6-oxo-2-(2-(trifluoromethyl)benzyl)-1,6-dihydropyrimidine-4-carboxamide], the “reporter-gene assay cell wall” value (iniBAC promoter) was “positive”, the AUC [1] was 1060 ng·h/mL and the CL [1] was 9.48. For the same compound, the Tmax [1] was 1.0 h, the Vd [1] was 33.7 L/kg and the Cmax ([1]; suspension) was 250 ng/mL. The T1/2 ([1]; 10 mg/kg) was 4 h and 4.1 h, the IC50 (HepG2 cells) was greater than 100 µM and the IC50 (in vitro) was greater than 100 µM. For the same compound, the “reporter-gene assay DNA damage” value (recA and radA reporters) was “no induction”, the “bactericidal activity against anaerobic nonreplicating Mtb” value [2] was “lacked bactericidal activity” and the “activity against Mtb replication in J774 murine macrophages” value [3] was “active”. The “MIC CydKO” value (Mtb cydC::aph strain) was 6.2 µM (≈ 2.59 µg/mL), the “logarithmic reduction in colony-forming units” value (actively replicating Mtb) was 1–2 log and the MIC (Mtb strain H37Rv; Mycobacterium tuberculosis, H37RV, Mtb H37Rv in GAST (Table 2), read-out: MIC GAST) was 0.59 µM. It also gave an MIC (Mtb strain H37Rv; Mycobacterium tuberculosis, H37RV, Mtb H37Rv, GAST medium (Table 1), read-out: MIC GAST) of 0.4 ± 0.2 µM, an MIC (Mtb strain H37Rv; Mycobacterium tuberculosis, H37RV, pH 6, read-out: MIC nitrite/butyrate) of 12.5 µM and an MIC (Mtb strain H37Rv; Mycobacterium tuberculosis, H37RV, supplementary CSV, read-out: MIC in 7H9/ADC) of 4.7 µM. It also gave an MIC (Mtb strain H37Rv; Mycobacterium tuberculosis, H37RV, supplementary CSV, read-out: MIC in GAST/Fe) of 0.59 µM, an MIC (Mtb strain H37Rv; Mycobacterium tuberculosis, H37RV, read-out: MIC 7H9/ADC) of 4.7 ± 1.5 µM and an MIC (Mtb strain H37Rv; Mycobacterium tuberculosis, H37RV, read-out: MIC Chol) of 1.6 µM. The MIC (Mtb strain H37Rv; Mycobacterium tuberculosis, H37RV, read-out: MIC GBSA or DBSA) was 3.1 µM, the MIC (Mtb strain H37Rv; Mycobacterium tuberculosis, H37RV, read-out: MIC in 7H9/ADC) was roughly 1.9 µg/mL and the MIC (Mtb strain H37Rv; Mycobacterium tuberculosis, H37RV, read-out: MIC, DprE1 wild type) was 3.13 µM. The MIC (Mtb strain H37Rv; read-out: MIC 7H9/ADC) was 4.7 µM.
